{"source": "patent US20240100065A1", "about": "“METHODS FOR TREATING RECEPTOR-INTERACTING PROTEIN KINASE 1-MEDIATED DISEASES” (Genzyme Corporation, priority 2022, published 2024)", "assay": "Concentration-ECG (QTcF, HR, PR, QRS) analysis from 24-hour Holter", "format": "in vivo, human", "procedure": "A thorough time-matched (TM∘) ECG parameters analysis in relation with SAR443820 concentrations on Day 1 (SAD-Part 1a) and on Day 14 (MAD Part 2) over 24 hours compared to the baseline prior the first dosing was performed on ECG extracted from 24-hour Holter data.\nFor Part 1a (SAD) and Part 2 (MAD), the concentration-ECG population will encompass all randomized participants treated by SAR443820 as long as they have at least 1 ECG assessment time-matched with a pharmacokinetic concentration (ECGs centrally read coming from 24-hours Holter ECG). Participants randomized in the placebo group will also be included in the Concentration-ECG population if they have at least 1 non missing change from baseline in ECG parameter. Exposure-response analyses between QTcF parameters (change from time-matched baseline in 24-hours Holter ECG data) and corresponding Compound 1 concentrations were performed using graphical tools and regression methods over 24 hours on Day 1 (SAD-Part 1a) or Day 14 (MAD-Part 2) post-dose. Predictions at selected concentrations were computed using a linear mixed effect model (see Am Heart J. 2014; 168(3):262-72. J Pharmacokinet Pharmacodyn. 2018; 45(3):383-97).", "key": {"[1]": {"details": "Part 1a Day 1, 10 mg, at Cmax 116.00 ng/ml"}, "[2]": {"details": "Part 1a Day 1, 20 mg, at Cmax 241.00 ng/ml"}, "[3]": {"details": "Part 1a Day 1, 30 mg, at Cmax 417.00 ng/ml"}, "[4]": {"details": "Part 1a Day 1, 40 mg, at Cmax 555.00 ng/ml"}, "[5]": {"details": "Part 2 Day 14, 10 mg QD, at Cmax 158.00 ng/ml"}, "[6]": {"details": "Part 2 Day 14, 15 mg BID, at Cmax 268.00 ng/ml"}, "[7]": {"details": "Part 2 Day 14, 20 mg BID, at Cmax 353.00 ng/ml"}, "[8]": {"details": "Part 2 Day 14, 20 mg QD, at Cmax 250.00 ng/ml"}}, "data": [{"smiles": "CC(C)(C(=O)N1CCOc2c(C#N)cncc2C1)C(F)F", "note": "[Compound 1, 4-(3,3-difluoro-2,2-dimethyl-propanoyl)-3,5-dihydro-2H-pyrido[3,4-f] [1,4]oxazepine-9-carbonitrile]", "values": [{"measurement": "Predicted delta Heart Rate vs placebo", "setting": "[1]", "value": "−3.68", "unit": "beats/min"}, {"measurement": "Predicted delta PR Interval vs placebo", "setting": "[1]", "value": 5.87, "unit": "ms"}, {"measurement": "Predicted delta QRS Duration vs placebo", "setting": "[1]", "value": -0.04, "unit": "ms"}, {"measurement": "Predicted delta QTcF interval vs placebo", "setting": "[1]", "value": -4.41, "unit": "ms"}, {"measurement": "Predicted delta Heart Rate vs placebo", "setting": "[2]", "value": "−2.62", "unit": "beats/min"}, {"measurement": "Predicted delta PR Interval vs placebo", "setting": "[2]", "value": 6.70, "unit": "ms"}, {"measurement": "Predicted delta QRS Duration vs placebo", "setting": "[2]", "value": 0.43, "unit": "ms"}, {"measurement": "Predicted delta QTcF interval vs placebo", "setting": "[2]", "value": -3.88, "unit": "ms"}, {"measurement": "Predicted delta Heart Rate vs placebo", "setting": "[3]", "value": "−1.11", "unit": "beats/min"}, {"measurement": "Predicted delta PR Interval vs placebo", "setting": "[3]", "value": 7.88, "unit": "ms"}, {"measurement": "Predicted delta QRS Duration vs placebo", "setting": "[3]", "value": 1.10, "unit": "ms"}, {"measurement": "Predicted delta QTcF interval vs placebo", "setting": "[3]", "value": -3.15, "unit": "ms"}, {"measurement": "Predicted delta Heart Rate vs placebo", "setting": "[4]", "value": 0.06, "unit": "beats/min"}, {"measurement": "Predicted delta PR Interval vs placebo", "setting": "[4]", "value": 8.80, "unit": "ms"}, {"measurement": "Predicted delta QRS Duration vs placebo", "setting": "[4]", "value": 1.62, "unit": "ms"}, {"measurement": "Predicted delta QTcF interval vs placebo", "setting": "[4]", "value": -2.57, "unit": "ms"}, {"measurement": "Predicted delta Heart Rate vs placebo", "setting": "[5]", "value": 0.25, "unit": "beats/min"}, {"measurement": "Predicted delta PR Interval vs placebo", "setting": "[5]", "value": -4.63, "unit": "ms"}, {"measurement": "Predicted delta QRS Duration vs placebo", "setting": "[5]", "value": 2.52, "unit": "ms"}, {"measurement": "Predicted delta QTcF interval vs placebo", "setting": "[5]", "value": -5.36, "unit": "ms"}, {"measurement": "Predicted delta Heart Rate vs placebo", "setting": "[6]", "value": "−0.26", "unit": "beats/min"}, {"measurement": "Predicted delta PR Interval vs placebo", "setting": "[6]", "value": -4.53, "unit": "ms"}, {"measurement": "Predicted delta QRS Duration vs placebo", "setting": "[6]", "value": 3.00, "unit": "ms"}, {"measurement": "Predicted delta QTcF interval vs placebo", "setting": "[6]", "value": -3.74, "unit": "ms"}, {"measurement": "Predicted delta Heart Rate vs placebo", "setting": "[7]", "value": "−0.65", "unit": "beats/min"}, {"measurement": "Predicted delta PR Interval vs placebo", "setting": "[7]", "value": -4.46, "unit": "ms"}, {"measurement": "Predicted delta QRS Duration vs placebo", "setting": "[7]", "value": 3.37, "unit": "ms"}, {"measurement": "Predicted delta QTcF interval vs placebo", "setting": "[7]", "value": -2.49, "unit": "ms"}, {"measurement": "Predicted delta Heart Rate vs placebo", "setting": "[8]", "value": "−0.18", "unit": "beats/min"}, {"measurement": "Predicted delta PR Interval vs placebo", "setting": "[8]", "value": -4.55, "unit": "ms"}, {"measurement": "Predicted delta QRS Duration vs placebo", "setting": "[8]", "value": 2.92, "unit": "ms"}, {"measurement": "Predicted delta QTcF interval vs placebo", "setting": "[8]", "value": -4.01, "unit": "ms"}, {"measurement": "Effect on QTcF intervals", "setting": "single dose up to 40 mg, repeated dose up to 20 mg BID", "value": "No clinically relevant dose-related effects"}]}]}
